Measurements published in US12466840B2, “Small molecule inhibitors of KRAS proteins” (Merck Sharp & Dohme LLC, priority 2023, dated 2025).
Where two headings read alike, the source gives them in different places.

How the values were obtained:
[1] = molecular target: KRAS G12C (Homo sapiens (Human), UniProt P01116, C118S/C51S/C80L/G12C); experiment: SOS-catalyzed nucleotide exchange assay (GNE), KRAS G12C; assay type: biochemical; details: TR-FRET, 60 min preincubation; protein with C51S/C80L/C118S
Source text: (§1) Procedure for SOS-Catalyzed Nucleotide Exchange Assay for KRAS-WT, G12C/D/V/A/R/S, G13D, Q61H, HRAS-WT, and NRAS-WT
(§2) Recombinant KRAS-G12C protein used in this assay has an additional triple mutation (C51S/C80L/C118S). Whereas KRAS-WT, G12D/V/A/S/R, G13D, Q61H, HRAS and NRAS are in context of their WT protein sequence background. Specifically, the SOS-catalyzed nucleotide exchange assay utilizes a preformed TR-FRET complex containing a specific biotinylated RAS protein (KRAS-WT, G12C/V/D/A/S/R, G13D, Q61H, HRAS-WT, NRAS-WT; described above) with Bodipy-GDP, and Terbium-streptavidin. Compounds are preincubated with this complex for 60 minutes. Subsequently, recombinant human SOS protein and unlabeled GTP are added to initiate the exchange reaction. Small molecule inhibitors stabilize the Bodipy-GDP complex whereas the untreated protein rapidly exchanges Bodipy-GDP for unlabeled GTP resulting in reduced TR-FRET signal.
(§3) To assemble the preformed TR-FRET complexes, each biotinylated RAS protein is diluted to 2 μM in an EDTA Buffer (20 mM HEPES pH 7.5, 50 mM sodium chloride, 10 mM EDTA, and 0.01% Tween) and incubated at room temperature for one hour. This mixture is then further diluted to 90 nM in an Assay Buffer (20 mM HEPES pH 7.5, 150 mM sodium chloride, 10 mM magnesium chloride, and 0.005% Tween) containing 15 nM of Terbium-Streptavidin (Invitrogen, catalog #PV3577) and 900 nM of Bodipy-GDP (Invitrogen, catalog #G22360) and incubated at room temperature for six hours. It should be noted that this preformed TR-FRET complex for each of the RAS protein were made ahead of time, aliquoted and stored at −80° C. until the day of the experiment.
(§4) Each test compound (10 mM stock in DMSO) is diluted in DMSO to make a final-10-point, 3-fold dilution and is acoustically dispensed into a 384-well assay plate (Corning, catalog #3820) using an Echo 550 (Labcyte). Each well of the assay plate receives 3 μL of a specific 3×RAS preformed TR-FRET complex and 3 μL of Assay Buffer and is incubated at room temperature for 60 minutes (preincubation time). Each well then receives 3 μL of 3× recombinant human SOS protein and GTP (Sigma, G8877) in Assay Buffer and is incubated at room temperature for 30 minutes (G13D), 60 minutes (KRAS WT/G12C/D, H/NRAS) or 90 minutes for G12A/R/S/V and Q61H. The final reaction in each well of 9 μL consists of 3 mM GTP, specific Ras and SOS proteins in the following concentrations: KRAS-G12C/SOS=3 nM/40 nM, KRAS-WT and G12D/SOS=1 nM/40 nM, KRAS-G12V/SOS=1.25 nM/160 nM, KRAS-G12A/S/SOS=1 nM/160 nM, KRAS-G12R/SOS=1 nM/320 nM, KRAS-Q61H/SOS=1 nM/320 nM, KRAS-G13D/SOS=1.25 nM/[…], HRAS-WT and NRAS-WT=1.25 nM/40 nM.
(§5) The time-resolved fluorescence resonance energy transfer (TR-FRET) signal is measured on an Envision (PerkinElmer) plate reader: Excitation filter=340 nm; emission1=495 nm; emission2=520 nm; dichroic mirror=D400/D505; delay time=[…]. The signal of each well is determined as the ratio of the emission at 520 nm to that at 495 nm. Percent effect of each well is determined after normalization to control wells containing DMSO (no effect) or a saturating concentration of inhibitor (max effect). The apparent effect as a function of compound concentration is fit to a four-parameter logistic equation.

[2] = molecular target: KRAS G12D (Homo sapiens (Human), UniProt P01116, G12D); experiment: SOS-catalyzed nucleotide exchange assay (GNE), KRAS G12D; assay type: biochemical; details: TR-FRET, 60 min preincubation
Source text: as §1, §2, §3, §4, §5

[3] = test system: MKN-1 cells (amplified wild-type KRAS); experiment: Cellular phospho-ERK assay, MKN-1 cells; assay type: cell-based; details: 2 h, p-ERK vs. total ERK, read-out: MKN1 pERK IC50
Procedure: Procedure for Cellular Phospho-ERK Assay in KRAS Wild Type and Mutant (G12D, G12V) Cell Lines
MKN-1 cells (JCRB JCRB0252) containing amplified wild-type KRAS, were cultured in growth medium that contains RPMI 1640-GlutaMAX™-I (ThermoFisher Scientific 61870) containing 10% heat inactivated fetal bovine serum (ThermoFisher Scientific 10091148), 1 mM sodium pyruvate and 10 mM HEPES. AsPC-1 cells (ATCC® CRL-1682™), containing homozygous KRAS-G12D activating mutation, were cultured in T150 flask in growth medium (RPMI medium 1640-GlutaMAX™-I (ThermoFisher Scientific 61870) containing 10% fetal bovine serum (ThermoFisher Scientific 10091148)). SW620 cells (ATCC® CRL-227™) containing homozygous KRAS-G12V activating mutation, were cultured in growth medium that contains RPMI 1640-GlutaMAX™-I (ThermoFisher Scientific 61870) containing 10% heat inactivated fetal bovine serum (ThermoFisher Scientific 10091148).
Cells for the assay were harvested in growth medium after TrypLE (ThermoFisher scientific 12604021) digestion and were seeded in a 384-well collagen coated cell culture plate (Corning 356702) at a density of 10,000-15,000 cells/[…]/well, and incubated at 37° C., 5% CO2 overnight. The compound (with 10 mM stock concentration) dose-response titrations were prepared [30 μM final ERK detection assay concentration and 1:3 dilutions, 10-point dose response] and appropriate amounts (270 nL) of test compounds were dispensed in a 384-well intermediate plate using an Echo 550 liquid handler. 30 μL/well of RPMI medium 1640-GlutaMAX™-I was added to the intermediate plate and the contents of the intermediate plate (10 μL/well) were then transferred to the 384-well collagen coated cell culture plate, which was incubated at 37° C., 5% CO2 for 2 h. After removal of medium from the collagen coated cell culture plate, cells were lysed in lysis buffer from Alpha SureFire® Ultra™ Multiplex p-ERK and total ERK assay kit (PerkinElmer MPSU-PTERK) containing Halt™ Protease and Phosphatase inhibitor cocktail (ThermoFisher Scientific 78446) at room temperature with constant shaking at 300 rpm for 30 minutes. The cell lysates were then transferred to an OptiPlate-384 plate (PerkinElmer 6005620), and the phosphorylation of ERK (p-ERK) and total ERK levels were detected by Alpha SureFire® Ultra™ Multiplex p-EEK kit and total ERK assay kit (PerkinElmer MPSU-PTERK) following the manufacturer's protocol. Assay plates were read on a EnVision Multimode Plate Reader (PerkinElmer), and the ratio of p-ERK vs. total ERK in each well was used as the final readout. Dose response curves were analyzed using a 4-parameter logistic model to calculate IC50 values using Spotfire software.

KRAS G12D, sequence (P01116 other isoform, or with tags, fused parts or gaps G12D (already in the parent)): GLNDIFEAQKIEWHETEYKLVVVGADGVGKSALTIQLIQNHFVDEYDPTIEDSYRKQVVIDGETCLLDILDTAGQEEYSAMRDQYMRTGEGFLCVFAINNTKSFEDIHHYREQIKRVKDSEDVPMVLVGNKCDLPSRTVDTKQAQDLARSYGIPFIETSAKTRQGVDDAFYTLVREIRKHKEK
KRAS G12C, sequence (P01116 other isoform, or with tags, fused parts or gaps, stated change not applied): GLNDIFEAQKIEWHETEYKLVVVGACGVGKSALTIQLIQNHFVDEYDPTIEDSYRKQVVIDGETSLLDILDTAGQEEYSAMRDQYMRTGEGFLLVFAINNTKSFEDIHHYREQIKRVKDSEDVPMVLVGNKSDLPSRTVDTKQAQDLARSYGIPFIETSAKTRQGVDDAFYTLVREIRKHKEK

| IC50 [2] [nM] | IC50 ([3]; Homo sapiens) [nM] | SMILES | IC50 [1] [nM] | IC50 [3] [nM] |
| --- | --- | --- | --- | --- |
| 1.3 | 14 | CCc1c(F)ccc2cc3[nH]nc(C)c3c(-c3nc4c5c(nc(OC[C@@]67CCCN6C[C@H](F)C7)nc5c3F)N3CCCOC[C@H]3CO4)c12 [Ex-6, (8aS)-5-(5-ethyl-6-fluoro-3-methyl-1H-benzo[f]indazol-4-yl)-4-fluoro-2-(((2R,7aS)-2-fluorotetrahydro-1H-pyrrolizin-7a(5H)-yl)methoxy)-8a,9,12,13-tetrahydro-8H,11H-7,10-dioxa-1,3,6,13a-tetraazanaphtho[1,8-ab]heptalene] | 6.5 |  |
| 1.3 | 9.7 | Fc1c(-c2c(C3CC3)c(Cl)cc3[nH]ncc23)nc2c3c(nc(OC[C@@]45CCCN4C[C@H](F)C5)nc13)N1CCCOC[C@H]1CO2 [Ex-3, (8aS)-5-(6-chloro-5-cyclopropyl-1H-indazol-4-yl)-4-fluoro-2-(((2R,7aS)-2-fluorotetrahydro-1H-pyrrolizin-7a(5H)-yl)methoxy)-8a,9,12,13-tetrahydro-8H,11H-7,10-dioxa-1,3,6,13a-tetraazanaphtho[1,8-ab]heptalene] |  |  |
| < 0.69 | 4.3 | F/C=C1\CN2CCC[C@@]2(COc2nc3c4c(nc(-c5c(C6(F)CC6)c(Cl)cc6[nH]ncc56)c(F)c4n2)OC[C@@H]2COCCCN32)C1 [Ex-5, (8aS)-5-(6-chloro-5-(1-fluorocyclopropyl)-1H-indazol-4-yl)-4-fluoro-2-(((S,Z)-2-(fluoromethylene)tetrahydro-1H-pyrrolizin-7a(5H)-yl)methoxy)-8a,9,12,13-tetrahydro-8H,11H-7,10-dioxa-1,3,6,13a-tetraazanaphtho[1,8-ab]heptalene] | 3.3 |  |
| < 0.69 | 6.6 | CCc1c(F)ccc2cc3[nH]ncc3c(-c3nc4c5c(nc(OC[C@@]67CCCN6C/C(=C\F)C7)nc5c3F)N3CCCOC[C@H]3CO4)c12 [Ex-4, (8aS)-5-(5-ethyl-6-fluoro-1H-benzo[f]indazol-4-yl)-4-fluoro-2-(((S,Z)-2-(fluoromethylene)tetrahydro-1H-pyrrolizin-7a(5H)-yl)methoxy)-8a,9,12,13-tetrahydro-8H,11H-7,10-dioxa-1,3,6,13a-tetraazanaphtho[1,8-ab]heptalene] | 2.9 |  |

| SMILES | IC50 [2] [nM] | IC50 ([3]; Homo sapiens) [nM] | IC50 [1] [nM] | IC50 [3] [nM] |
| --- | --- | --- | --- | --- |
| CCc1c(F)ccc2cc3[nH]nc(C)c3c(-c3nc4c5c(nc(OC[C@@]67CCCN6C/C(=C\F)C7)nc5c3F)N3CCCOC[C@H]3CO4)c12 [Ex-7, (8aS)-5-(5-ethyl-6-fluoro-3-methyl-1H-benzo[f]indazol-4-yl)-4-fluoro-2-(((S,Z)-2-(fluoromethylene)tetrahydro-1H-pyrrolizin-7a(5H)-yl)methoxy)-8a,9,12,13-tetrahydro-8H,11H-7,10-dioxa-1,3,6,13a-tetraazanaphtho[1,8-ab]heptalene] | 1.4 |  | 11 | 12 |
| F/C=C1/CN2CCC[C@@]2(COc2nc3c4c(nc(-c5c(C6CC6)c(Cl)cc6[nH]ncc56)c(F)c4n2)OC[C@@H]2COCCCN32)C1 [Ex-1, (8aS)-5-(6-chloro-5-cyclopropyl-1H-indazol-4-yl)-4-fluoro-2-(((S,Z)-2-(fluoromethylene)tetrahydro-1H-pyrrolizin-7a(5H)-yl)methoxy)-8a,9,12,13-tetrahydro-8H,11H-7,10-dioxa-1,3,6,13a-tetraazanaphtho[1,8-ab]heptalene] | 0.67 |  | 6.9 | 9.1 |
| CCc1c(F)ccc2cc3[nH]ncc3c(-c3nc4c5c(nc(OC[C@@]67CCCN6C[C@H](F)C7)nc5c3F)N3CCCOC[C@H]3CO4)c12 [Ex-2, (8aS)-5-(5-ethyl-6-fluoro-1H-benzo[f]indazol-4-yl)-4-fluoro-2-(((2R,7aS)-2-fluorotetrahydro-1H-pyrrolizin-7a(5H)-yl)methoxy)-8a,9,12,13-tetrahydro-8H,11H-7,10-dioxa-1,3,6,13a-tetraazanaphtho[1,8-ab]heptalene] | 0.65 |  | 3.2 | 7.9 |
